Data published in US20190255146A1, “POLYPEPTIDES FOR IMPROVED RESPONSE TO ANTI-CANCER THERAPY” (MUSC FOUNDATION FOR RESEARCH DEVELOPMENT, priority 2016, published 2019).

Tests used:
[1] = system: UM-SCC-22A-derived xenograft tumors; assay: HPV(−) UM-SCC-22A-derived xenograft tumor growth in SCID mice; type: in vivo; conditions: UM-SCC-22A xenografts, 3.76 μg peptide, absence/presence of cisplatin 3.5 mg/kg every 3 days for 2 weeks
Procedure: To determine whether HPV(+) compared to HPV(−) HNSCC cells are more sensitive to stress-mediated growth inhibition in response to chemotherapeutic drugs, it was first established HPV(+) UM-SCC-47- and HPV(−) UM-SCC-22A-derived xenograft tumors in SCID mice. After the xenograft-derived tumors were ˜75-100 mm^3, the mice were treated with cisplatin (3.5 mg/kg) for two weeks, which is below its maximum tolerated doses (van Moorsel et al, 1999). Then, tumor volumes were measured at days 0 and 14 of treatment. […] After tumor growth measurements in the mice were taken, the tumors were surgically removed and the effects of cisplatin on CerS1-6 mRNA were measured by qRT-PCR.
Eight arginine residues (R8) were included on the N-terminus to enhance cell penetration of the E2F5 peptide (Rancher and Ryu, 2015).
(§1) In vivo studies. Severe combined immunodeficient (SCID) mice were purchased from Jackson Laboratories. Age- and sex-matched mice were used. All animal protocols were approved by the Institutional Animal Care and Use Committee at the Medical University of South Carolina. UM-SCC22A or UM-SCC47 cells (75,000) were implanted into the flanks of SCID mice (n=5-8 mice). When the tumors were palpable, the mice were treated every three days with 3.5 mg/kg cisplatin, 20 mg/kg C18-pyr-cer, or corresponding amount of vehicle control and/or 3.76 μg E2F5-peptide or scrambled control peptide. Tumor volume was measured using calipers. At the end of the 14-day treatment, the mice were euthanized and tumor tissues were collected (Sentelle et al, 2007; Saddoughi et al, 2013).

UM-SCC-22A cells [2] = system: UM-SCC-22A cells
Procedure: Trypan blue exclusion assay. Cells were seeded in 6-well plates, and allowed to adhere for 20 h. After treatments (for 24 h), medium containing dead cells was pelleted with trypsinized cells, then re-suspended in 1× PBS then counted in a hemocytometer after addition of trypan blue dye (Sigma-Aldrich) at a 1:10 dilution.

UM-SCC-22A cells [3] = assay: Mitophagy in UM-SCC-22A cells (live cell imaging, colocalization of LTG and MTR); type: cell-based
Procedure: Laser scanning confocal microscopy. For live cell imaging, cultured cells were incubated with 500 nM of mitotracker […] and 500 nM lysotracker green in DMSO for 30 min at 37° C. […] An Olympus FV10i confocal microscope was used for imaging. 543- and 488-nm channels were used for visualizing red or green fluorescence, respectively, with pinholes set to 1.0 Airy units. At least three random fields were imaged for each sample ([…] et al, 2012).

Drp1 [4] = target: T1, Drp1 (Homo sapiens, UniProt O00429); assay: Drp1 recruitment to mitochondria in HPV(−) UM-SCC-22A cells (Western blotting of mitochondria-enriched fractions); type: cell-based; conditions: 5 uM peptide, 20 uM C18-pyr-cer, 1.5 hours
T1 construct: Western blotting using whole cell (UM-SCC-22A) lysates versus mitochondria-enriched fractions; endogenous in cells; host or cells: UM-SCC-22A
Procedure: (§2) Images were quantified using FIJI.
(§3) Immunoblotting. Cells were lysed in RIPA buffer plus protease inhibitor cocktail on ice for 15 minutes then centrifuged. 30ug of protein from the supernatant were run on Criterion™ TGX™ Precast Gels (Bio-Rad).
Cell fractionation. Cells were treated with 40 uM cisplatin or vehicle for eight hours, 20 uM C18-pyr-cer or vehicle and/or 5 uM scr-pept or E2F5-pept for 1.5 hours. Mitochondria isolation kit (ThermoFisher Scientific) was used as described by the manufacturer.

[5] = system: UM-SCC-22A xenograft-derived tumors; conditions: peptide plus cisplatin versus Scr-pept with/without cisplatin
From the text: Data are means±SD from three independent experiments. *p<0.05 as determined by Student's t test. […] Data are means±SD from three independent experiments. *p<0.05 as determined by Student's t test. […] Data are means±SD from three independent experiments. *p<0.05 as determined by Student's t test.
as §1

Drp1-E2F5 complex [6] = target: T2, Drp1-E2F5 complex (Homo sapiens, UniProt O00429); assay: Drp1-E2F5 association by PLA in tumor tissue sections; type: in vivo, mice; conditions: peptide plus cisplatin versus Scr-pept with/without cisplatin
T2 construct: from tissue; host or cells: UM-SCC-22A xenograft tumours grown in SCID mice
Procedure: as §2
(§4) Proximity ligation assay. Proximity ligation assays were performed using Duolink in situ red kit (Sigma) per manufacturer's instructions, then analyzed as described (Panneer-Selvam et al, 2015).
In vivo studies. […] Age- and sex-matched mice were used. […] Tumor volume was measured using calipers.

UM-SCC-22A cells [7] = assay: Growth inhibition in culture, IC50 determination by MTT assay; type: cell-based; conditions: UM-SCC-22A (HPV−) cells, 48 h; read-out: IC50 (concentration that inhibited growth by 50%)
Procedure: (§5) IC50 determination by MTT assay. Cells were plated in 96-well plates and allowed to adhere for 20 h, then treated with the indicated concentrations of drug. After 48 h treatment, the MTT assay (ATCC) was performed as described previously (Sentelle et al, 2012).

UM-SCC-47 cells [8] = assay: as above; type: cell-based
Procedure: as §5

UM-SCC-47 cells [9] = assay: Mitophagy in UM-SCC-47 cells (Sea Horse oxygen consumption rate, TEM); type: cell-based
Procedure: Measurement of cellular respiration using Seahorse XF analyzer. Cells were plated in a Seahorse Biosciences 96-well plate and allowed to adhere for 20 hours. They were then treated with 20 uM C18-pyr-cer or equivalent amount of vehicle (EtOH) for two hours, then oxygen consumption rate was measured using a Seahorse XF96 (Seahorse Biosciences) as described by the manufacturer (Sentelle et al, 2012).
Ultra-structure analysis using transmission electron microscopy.

Drp1 [10] = assay: Drp1 oligomerization by Western blotting without reducing agents; type: cell-based; conditions: HPV(+) UM-SCC47 cells
Procedure: FIGS. 7A-F. E2F5/Drp1 complex enhances HPV-E7/ceramide-dependent lethal mitophagy. (A) UM-SCC47 cells were treated with cisplatin or C18-pyr-cer and Western blotting was performed with cell lysates in the absence of reducing agents in the lysing buffer to detect monomeric and dimeric Drp1 protein abundance compared to vehicle-treated controls. Actin was used as a loading control. (B-C) Cell death was assessed by trypan blue exclusion assay in UM-SCC47 cells expressing dominant-negative Drp1 mutant (K38A-DRP1) and treated with C18-pyr-cer (B) or cisplatin (C) compared to vector-transfected controls. […] (D-E) Association between E2F5 and Drp1 in response to ceramide stress (C18-pyr-cer) was measured in UM-SCC-47 cells using PLA (D) or immunoprecipitation followed by Western blotting (E) with anti-Drp1 or anti-E2F5 antibodies. IgG was used as a control. […] PLA signals were quantified as described by the manufacturer using the PLA quantification software. […] Effects of siRNA-mediated HPV-E6/E7 knockdown on pRB, HPV-E7 and p53 protein abundance were also confirmed by Western blotting compared to Scr-siRNA-transfected controls in the absence/presence of C18-pyr-cer (right panel). Total RB was used a loading control (Rb band, upper panel).
Immunoblotting. Cells were lysed in RIPA buffer plus protease inhibitor cocktail on ice for 15 minutes then centrifuged. […]

Drp1-E2F5 complex [11] = assay: Drp1-E2F5 association in UM-SCC-47 cells (PLA, co-immunoprecipitation); type: cell-based
Procedure: as §4
Co-immunoprecipitation. Cells were lysed in 500 ul Pierce™ IP lysis/wash buffer (ThermoFisher) with protease inhibitor cocktail (Sigma) on ice for 15 minutes. 350 μg of protein were used with SureBeads™ Protein A Magnetic Beads (BioRad) per manufacturer's instructions, using 10 μg antibody or corresponding normal IgG control (SCBT).

Drp1-MFF association = Drp1-MFF association by PLA in UM-SCC47 cells; type: cell-based
Procedure: (§6) FIGS. 9A-D. E2F5 enhances Drp1 translocation to mitochondria and association with MFF to induce HPV-E7/ceramide-dependent mitophagy. (A) Effects of stable knockdown of E2F5 using shRNA on DRP1-MFF association with/without C18-pyr-cer were measured by PLA using anti-DRP1 and anti-MFF antibodies compared to Scr-shRNA-transfected UM-SCC-47 controls. […] (B) HPV(−) UM-SCC1A cells transiently transfected with exogenous E2F5 or empty vector (vec) were used to measure the association between Drp1 and MFF in the absence/presence of ceramide stress by PLA using anti-DRP1 and anti-MFF antibodies. […] (C) Effects of shRNA-mediated E2F5 knockdown on Drp1 localization to mitochondria in the absence/presence of C18-pyr-cer were assessed in whole cell lysates (UM-SCC-47) versus mitochondria-enriched fractions using Western blotting. (D) Effects of transient reconstitution of E2F5^WT or E2F5^Δ84-177 proteins in UM-SCC47 cells, which were stably transfected with E2F5-shRNA, on Drp1 abundance, were measured by Western blotting using anti-Drp1 antibody, in whole cell lysates versus mitochondria-enriched fractions.
as §4

Drp1 [12] = assay: Drp1 recruitment to mitochondria in HPV(+) UM-SCC-47 cells (Western blotting of mitochondria-enriched fractions); type: cell-based
Procedure: as §6, §3
Cell fractionation. […]

T2 sequence (O00429 whole entry, one chain of several): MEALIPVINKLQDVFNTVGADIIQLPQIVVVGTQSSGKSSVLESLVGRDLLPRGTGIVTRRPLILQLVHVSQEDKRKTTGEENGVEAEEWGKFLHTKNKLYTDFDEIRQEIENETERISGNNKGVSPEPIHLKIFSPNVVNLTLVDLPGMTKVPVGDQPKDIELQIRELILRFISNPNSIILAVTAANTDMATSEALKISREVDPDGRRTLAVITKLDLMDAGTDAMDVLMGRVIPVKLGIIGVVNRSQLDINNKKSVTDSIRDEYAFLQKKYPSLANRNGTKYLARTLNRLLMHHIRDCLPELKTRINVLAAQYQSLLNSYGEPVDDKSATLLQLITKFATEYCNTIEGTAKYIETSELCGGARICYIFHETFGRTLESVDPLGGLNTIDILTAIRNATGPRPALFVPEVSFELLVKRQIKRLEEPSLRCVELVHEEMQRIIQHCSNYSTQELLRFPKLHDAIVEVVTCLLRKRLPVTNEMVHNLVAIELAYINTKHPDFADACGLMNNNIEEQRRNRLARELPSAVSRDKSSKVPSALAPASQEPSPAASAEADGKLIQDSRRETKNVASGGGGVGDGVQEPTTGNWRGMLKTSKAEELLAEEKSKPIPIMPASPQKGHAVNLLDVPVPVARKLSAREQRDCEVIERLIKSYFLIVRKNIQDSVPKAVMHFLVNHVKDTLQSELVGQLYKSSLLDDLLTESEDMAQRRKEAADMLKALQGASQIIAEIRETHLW
T1 sequence (O00429 whole entry): as the sequence (O00429 whole entry, one chain of several) above

Row | Substance | tumor growth [1] | C18-pyr-cer-induced cell death (UM-SCC-22A cells [2]; peptide plus C18-pyr-cer, compared to scr-pept) | cisplatin-induced cell death (UM-SCC-22A cells [2]; peptide plus cisplatin, compared to scr-pept) | peptide-enhanced cell death under shRNA-mediated Drp1 knockdown (UM-SCC-22A cells [2]; with/without C18-pyr-cer) | C18-pyr-cer-induced mitophagy (colocalization of LTG and MTR) (UM-SCC-22A cells [3]; peptide plus C18-pyr-cer) | ceramide-induced Drp1 recruitment to mitochondria (Drp1 [4]) | mitophagy in tumors (TEM) [5] | co-localization of Drp1 and E2F5 in tumors (PLA) (Drp1-E2F5 complex [6]) | IC50 (UM-SCC-22A cells [7]) [µM] | IC50 (UM-SCC-47 cells [8]; UM-SCC-47 (HPV+) cells, 48 h, read-out: IC50 (concentration that inhibited growth by 50%)) [µM] | sensitivity for drug-induced growth inhibition/cell death, UM-SCC-47 compared to UM-SCC-22A cells (UM-SCC-47 cells [8]; cells in culture) [fold] | number of mitochondria and autophagosomes by TEM (UM-SCC-47 cells [9]; HPV(+) UM-SCC-47 compared to HPV(−) UM-SCC-22A cells) | mitophagy detected by decreased oxygen consumption rate (UM-SCC-47 cells [9]; UM-SCC-47 cells, Sea Horse, versus vehicle) | Drp1 oligomerization and/or activation (Drp1 [10]) | Drp1-E2F5 association by PLA (Drp1-E2F5 complex [11]; versus controls) | Drp1-E2F5 association by co-immunoprecipitation (Drp1-E2F5 complex [11]; versus vehicle control) | Drp1-MFF association by PLA (Drp1-MFF association) | recruitment of Drp1 to mitochondria (Drp1 [12]) | lethal mitophagy in HPV(−) cells (UM-SCC-22A cells [3]; 5-10 μM, 24-48 h)
1 | Biotin-RRRRRRRR-ELDQQKLWLQQSIKNVMDDSINNRFSYVTHED [E2F5-pept] | almost completely inhibited tumor growth | largely increased | largely increased | attenuated | enhanced C18-pyr-cer-induced mitophagy | enhanced ceramide-induced Drp1 recruitment to mitochondria | increased mitophagy | increased | – | – | – | – | – | – | – | – | – | – | –
2 | C18-pyridinium-ceramide [C18-pyr-cer] | – | – | – | – | – | – | – | – | 5 | 1.6 | ~3 | a decreased number mitochondria and an increased number of autophagosomes | increased mitophagy | Drp1 oligomerization and/or activation was observed | increased Drp1-E2F5 association | increased association between Drp1 and E2F5 | induced Drp1-MFF association | induced recruitment of Drp1 to mitochondria | induces lethal mitophagy
